According to the NIST ThermoML archive (doi:10.1016/j.jct.2017.01.016):

Assay: xn = mol fraction of the nth substance listed
Settings: 101 kPa, Liquid; for viscosity: Capillary tube (Ostwald / Ubbelohde) method; for speed of sound: Frequency=3 MHz, Linear variable-path acoustic interferometer

Cc1cccc(C)c1 [1,3-dimethylbenzene] + C1COCCO1
Settings	speed of sound [m/s]	viscosity [mPa·s]
293.15 K, x2 = 0	1346.7	0.6184
293.15 K, x2 = 0.0938	1341.2	0.674
293.15 K, x2 = 0.1532	1338.2	0.7104
293.15 K, x2 = 0.2046	1335.9	0.7427
293.15 K, x2 = 0.2698	1333.4	0.7843
293.15 K, x2 = 0.3374	1331.4	0.8284
293.15 K, x2 = 0.4002	1330.1	0.8702
293.15 K, x2 = 0.4714	1329.3	0.9186
293.15 K, x2 = 0.5487	1329.6	0.9721
293.15 K, x2 = 0.63	1331.2	1.03
293.15 K, x2 = 0.7182	1335	1.093
293.15 K, x2 = 0.8035	1341	1.156
293.15 K, x2 = 0.8708	1347.8	1.207
293.15 K, x2 = 0.9324	1355.8	1.254
298.15 K, x2 = 0	1323.6	0.584
298.15 K, x2 = 0.0938	1318.3	0.633
298.15 K, x2 = 0.1532	1315.4	0.6651
298.15 K, x2 = 0.2046	1313.2	0.6934
298.15 K, x2 = 0.2698	1310.8	0.7303
298.15 K, x2 = 0.3374	1308.8	0.7694
298.15 K, x2 = 0.4002	1307.6	0.8064
298.15 K, x2 = 0.4714	1307	0.8493
298.15 K, x2 = 0.5487	1307.3	0.8968
298.15 K, x2 = 0.63	1309.1	0.948
298.15 K, x2 = 0.7182	1312.9	1.005
298.15 K, x2 = 0.8035	1318.8	1.061
298.15 K, x2 = 0.8708	1325.5	1.106
298.15 K, x2 = 0.9324	1333.5	1.148
303.15 K, x2 = 0	1302.4	0.5517
303.15 K, x2 = 0.0938	1297.2	0.5953
303.15 K, x2 = 0.1532	1294.4	0.6236
303.15 K, x2 = 0.2046	1292.2	0.6487
303.15 K, x2 = 0.2698	1289.8	0.6811
303.15 K, x2 = 0.3374	1287.9	0.7159
303.15 K, x2 = 0.4002	1286.6	0.7488
303.15 K, x2 = 0.4714	1286	0.787
303.15 K, x2 = 0.5487	1286.3	0.8293
303.15 K, x2 = 0.63	1288.1	0.875
303.15 K, x2 = 0.7182	1291.9	0.9258
303.15 K, x2 = 0.8035	1297.7	0.976
303.15 K, x2 = 0.8708	1304.4	1.016
303.15 K, x2 = 0.9324	1312.2	1.054
308.15 K, x2 = 0	1282.3	0.5229
308.15 K, x2 = 0.0938	1277.1	0.5621
308.15 K, x2 = 0.1532	1274.3	0.5875
308.15 K, x2 = 0.2046	1272.1	0.6101
308.15 K, x2 = 0.2698	1269.7	0.6392
308.15 K, x2 = 0.3374	1267.8	0.6706
308.15 K, x2 = 0.4002	1266.5	0.7002
308.15 K, x2 = 0.4714	1265.8	0.7347
308.15 K, x2 = 0.5487	1266	0.773
308.15 K, x2 = 0.63	1267.7	0.8144
308.15 K, x2 = 0.7182	1271.2	0.8604
308.15 K, x2 = 0.8035	1276.9	0.9061
308.15 K, x2 = 0.8708	1283.2	0.943
308.15 K, x2 = 0.9324	1290.7	0.9769
313.15 K, x2 = 0	1262.3	0.4938
313.15 K, x2 = 0.0938	1257.2	0.5297
313.15 K, x2 = 0.1532	1254.3	0.553
313.15 K, x2 = 0.2046	1252.2	0.5737
313.15 K, x2 = 0.2698	1249.8	0.6005
313.15 K, x2 = 0.3374	1247.9	0.6291
313.15 K, x2 = 0.4002	1246.6	0.6563
313.15 K, x2 = 0.4714	1245.8	0.688
313.15 K, x2 = 0.5487	1246	0.7231
313.15 K, x2 = 0.63	1247.5	0.7611
313.15 K, x2 = 0.7182	1250.9	0.8034
313.15 K, x2 = 0.8035	1256.4	0.8453
313.15 K, x2 = 0.8708	1262.4	0.8793
313.15 K, x2 = 0.9324	1269.6	0.9105
318.15 K, x2 = 0	1243	0.468
318.15 K, x2 = 0.0938	1237.9	0.501
318.15 K, x2 = 0.1532	1235.1	0.5226
318.15 K, x2 = 0.2046	1232.9	0.5416
318.15 K, x2 = 0.2698	1230.5	0.5665
318.15 K, x2 = 0.3374	1228.5	0.5928
318.15 K, x2 = 0.4002	1227.2	0.6178
318.15 K, x2 = 0.4714	1226.4	0.647
318.15 K, x2 = 0.5487	1226.5	0.6794
318.15 K, x2 = 0.63	1227.9	0.7144
318.15 K, x2 = 0.7182	1231.1	0.7535
318.15 K, x2 = 0.8035	1236.2	0.7922
318.15 K, x2 = 0.8708	1242	0.8232
318.15 K, x2 = 0.9324	1248.9	0.852

Cc1ccc(C)cc1 [1,4-dimethylbenzene] + C1COCCO1
Settings	speed of sound [m/s]	viscosity [mPa·s]
293.15 K, x2 = 0	1328.4	0.6505
293.15 K, x2 = 0.0716	1326.1	0.6921
293.15 K, x2 = 0.1445	1324.1	0.7358
293.15 K, x2 = 0.2132	1322.7	0.7779
293.15 K, x2 = 0.2871	1321.7	0.8239
293.15 K, x2 = 0.3582	1321.3	0.8691
293.15 K, x2 = 0.4358	1321.6	0.9192
293.15 K, x2 = 0.5042	1322.7	0.964
293.15 K, x2 = 0.5846	1325	1.018
293.15 K, x2 = 0.6543	1328.1	1.065
293.15 K, x2 = 0.7249	1332.5	1.113
293.15 K, x2 = 0.7923	1338.1	1.159
293.15 K, x2 = 0.8623	1345.6	1.208
293.15 K, x2 = 0.9311	1355.2	1.257
298.15 K, x2 = 0	1307.4	0.6115
298.15 K, x2 = 0.0716	1305.1	0.6484
298.15 K, x2 = 0.1445	1303.2	0.6871
298.15 K, x2 = 0.2132	1301.9	0.7245
298.15 K, x2 = 0.2871	1300.9	0.7654
298.15 K, x2 = 0.3582	1300.5	0.8054
298.15 K, x2 = 0.4358	1300.8	0.8499
298.15 K, x2 = 0.5042	1301.8	0.8898
298.15 K, x2 = 0.5846	1304	0.9374
298.15 K, x2 = 0.6543	1307	0.9792
298.15 K, x2 = 0.7249	1311.2	1.022
298.15 K, x2 = 0.7923	1316.6	1.064
298.15 K, x2 = 0.8623	1323.9	1.107
298.15 K, x2 = 0.9311	1333.1	1.151
303.15 K, x2 = 0	1287.3	0.5766
303.15 K, x2 = 0.0716	1285.1	0.6095
303.15 K, x2 = 0.1445	1283.2	0.644
303.15 K, x2 = 0.2132	1281.9	0.677
303.15 K, x2 = 0.2871	1280.9	0.7133
303.15 K, x2 = 0.3582	1280.5	0.7488
303.15 K, x2 = 0.4358	1280.8	0.7884
303.15 K, x2 = 0.5042	1281.8	0.8239
303.15 K, x2 = 0.5846	1283.9	0.8663
303.15 K, x2 = 0.6543	1286.8	0.9037
303.15 K, x2 = 0.7249	1290.8	0.9422
303.15 K, x2 = 0.7923	1296	0.9792
303.15 K, x2 = 0.8623	1303	1.018
303.15 K, x2 = 0.9311	1311.9	1.057
308.15 K, x2 = 0	1267.6	0.544
308.15 K, x2 = 0.0716	1265.4	0.5737
308.15 K, x2 = 0.1445	1263.6	0.605
308.15 K, x2 = 0.2132	1262.2	0.635
308.15 K, x2 = 0.2871	1261.2	0.6677
308.15 K, x2 = 0.3582	1260.8	0.6999
308.15 K, x2 = 0.4358	1261	0.7358
308.15 K, x2 = 0.5042	1261.8	0.768
308.15 K, x2 = 0.5846	1263.8	0.8064
308.15 K, x2 = 0.6543	1266.5	0.8403
308.15 K, x2 = 0.7249	1270.4	0.875
308.15 K, x2 = 0.7923	1275.4	0.9086
308.15 K, x2 = 0.8623	1282	0.9441
308.15 K, x2 = 0.9311	1290.5	0.9791
313.15 K, x2 = 0	1248.3	0.5132
313.15 K, x2 = 0.0716	1246.2	0.5407
313.15 K, x2 = 0.1445	1244.3	0.5693
313.15 K, x2 = 0.2132	1242.9	0.5968
313.15 K, x2 = 0.2871	1241.9	0.6269
313.15 K, x2 = 0.3582	1241.4	0.6565
313.15 K, x2 = 0.4358	1241.6	0.6894
313.15 K, x2 = 0.5042	1242.3	0.7189
313.15 K, x2 = 0.5846	1244.1	0.7542
313.15 K, x2 = 0.6543	1246.7	0.7853
313.15 K, x2 = 0.7249	1250.3	0.8172
313.15 K, x2 = 0.7923	1255	0.8479
313.15 K, x2 = 0.8623	1261.4	0.8802
313.15 K, x2 = 0.9311	1269.5	0.9126
318.15 K, x2 = 0	1229.8	0.4862
318.15 K, x2 = 0.0716	1227.7	0.5116
318.15 K, x2 = 0.1445	1225.8	0.538
318.15 K, x2 = 0.2132	1224.4	0.5633
318.15 K, x2 = 0.2871	1223.3	0.5911
318.15 K, x2 = 0.3582	1222.8	0.6185
318.15 K, x2 = 0.4358	1222.8	0.6488
318.15 K, x2 = 0.5042	1223.4	0.676
318.15 K, x2 = 0.5846	1225	0.7084
318.15 K, x2 = 0.6543	1227.4	0.737
318.15 K, x2 = 0.7249	1230.8	0.7663
318.15 K, x2 = 0.7923	1235.2	0.7946
318.15 K, x2 = 0.8623	1241.3	0.8244
318.15 K, x2 = 0.9311	1248.9	0.854
